#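 Protocol summary: plate cells (96-well), add compound at 5 concentrations, incubate 48 h, interpolate endpoints linearly. The concentration for 50% growth inhibition is given as GI50.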 Activity calls are given as the source filed them. Rule as the data show it: active = GI50 up to about 1.1 µM and inactive = higher.
# Assays:
# Test in all cases: NCI-60 cell line screen, 48 h
# SK-MEL-5 = tested on: SK-MEL-5
# RXF 631 = tested on: RXF 631
# SK-MEL-2 = tested on: SK-MEL-2
# SF-295 = tested on: SF-295
# LXFL 529 = tested on: LXFL 529
# OVCAR-5 = tested on: OVCAR-5
# NCI-H460 = tested on: NCI-H460
# NCI-H226 = tested on: NCI-H226
# UO-31 = tested on: UO-31
# UACC-62 = tested on: UACC-62
# SK-OV-3 = tested on: SK-OV-3
# COLO 205 = tested on: COLO 205
# OVCAR-4 = tested on: OVCAR-4
# K562 = tested on: K562
# DMS-273 = tested on: DMS-273
# Malme-3M = tested on: Malme-3M
# KM-20L2 = tested on: KM-20L2
# DMS-114 = tested on: DMS-114
# CAKI-1 = tested on: CAKI-1
# RPMI-8226 = tested on: RPMI-8226
# TK-10 = tested on: TK-10
# HCT-15 = tested on: HCT-15
# DLD-1 = tested on: DLD-1
# M19-MEL = tested on: M19-MEL
# SNB-78 = tested on: SNB-78
# OVCAR-8 = tested on: OVCAR-8
# NCI-H23 = tested on: NCI-H23
# XF498 = tested on: XF498
# EKVX = tested on: EKVX
# 786-0 = tested on: 786-0
# SK-MEL-28 = tested on: SK-MEL-28
# A549 = tested on: A549
# IGROV-1 = tested on: IGROV-1
# SF-539 = tested on: SF-539
# U-251 = tested on: U-251
# SNB-19 = tested on: SNB-19
# HCT-116 = tested on: HCT-116
# HOP-18 = tested on: HOP-18
# SNB-75 = tested on: SNB-75
# RXF 393 = tested on: RXF 393
# UACC-257 = tested on: UACC-257
# HCC 2998 = tested on: HCC 2998
# ACHN = tested on: ACHN
# MOLT-4 = tested on: MOLT-4
# SN12C = tested on: SN12C
# KM12 = tested on: KM12
# HT-29 = tested on: HT-29
# NCI-H522 = tested on: NCI-H522
# SW-620 = tested on: SW-620
smiles,measurement,setting,value
COc1ccc(C(=O)/C(=N/Nc2ccccc2)c2ccc(OC)cc2)cc1,GI50,SK-MEL-5,> 100 µM (inactive)
same,GI50,RXF 631,8.43 µM (inactive)
same,GI50,SK-MEL-2,> 100 µM (inactive)
same,GI50,SF-295,> 100 µM (inactive)
same,GI50,LXFL 529,25.2 µM (inactive)
same,GI50,OVCAR-5,> 100 µM (inactive)
same,GI50,NCI-H460,> 100 µM (inactive)
same,GI50,NCI-H226,> 100 µM (inactive)
same,GI50,UO-31,> 100 µM (inactive)
same,GI50,UACC-62,13.3 µM (inactive)
same,GI50,SK-OV-3,61.2 µM (inactive)
same,GI50,COLO 205,> 100 µM (inactive)
same,GI50,OVCAR-4,> 100 µM (inactive)
same,GI50,K562,20.4 µM (inactive)
same,GI50,DMS-273,31.6 µM (inactive)
same,GI50,Malme-3M,> 100 µM (inactive)
same,GI50,KM-20L2,10.2 µM (inactive)
same,GI50,DMS-114,58.1 µM (inactive)
same,GI50,CAKI-1,> 100 µM (inactive)
same,GI50,RPMI-8226,51.4 µM (inactive)
same,GI50,TK-10,> 100 µM (inactive)
same,GI50,HCT-15,8.55 µM
same,GI50,DLD-1,6.87 µM (inactive)
same,GI50,M19-MEL,> 100 µM (inactive)
same,GI50,SNB-78,> 100 µM (inactive)
same,GI50,OVCAR-8,> 100 µM (inactive)
same,GI50,NCI-H23,> 100 µM (inactive)
same,GI50,XF498,> 100 µM (inactive)
same,GI50,EKVX,> 100 µM (inactive)
same,GI50,786-0,> 100 µM (inactive)
same,GI50,SK-MEL-28,> 100 µM (inactive)
same,GI50,A549,> 100 µM (inactive)
same,GI50,IGROV-1,> 100 µM (inactive)
same,GI50,SF-539,> 100 µM (inactive)
same,GI50,U-251,> 100 µM (inactive)
same,GI50,SNB-19,> 100 µM (inactive)
same,GI50,HCT-116,> 100 µM (inactive)
same,GI50,HOP-18,> 100 µM (inactive)
same,GI50,SNB-75,27 µM (inactive)
same,GI50,RXF 393,31.9 µM (inactive)
same,GI50,UACC-257,> 100 µM (inactive)
same,GI50,HCC 2998,> 100 µM (inactive)
same,GI50,ACHN,33.9 µM (inactive)
same,GI50,MOLT-4,9.66 µM (inactive)
same,GI50,SN12C,> 100 µM (inactive)
same,GI50,KM12,10.6 µM (inactive)
same,GI50,HT-29,18.3 µM (inactive)
same,GI50,NCI-H522,80.4 µM (inactive)
same,GI50,SW-620,> 100 µM (inactive)
